22 compounds from ChEMBL document CHEMBL1158365, “Alkyne chemistry in crop protection” (2009) can be followed below.

Molecules are shown by their SMILES. ≈ marks a conversion by molar mass, not a printed value.

Common to all, as to type: functional
One assay deals with Ipomoea purpurea. As to the kind of experiment: Herbicidal activity against Ipomoea purpurea.
Another assay has as its system Abutilon theophrasti. The assay can be described thus: Herbicidal activity against Abutilon theophrasti.
The test system of another assay is Phytophthora infestans. The assay can be described thus: Antioomycetic activity against Phytophthora infestans.
The test system of a further assay is Plasmopara viticola. The assay can be described thus: Antioomycetic activity against Plasmopara viticola.

On to `Cn1c(C(F)(F)F)cc(=O)n(-c2cc3c(ccc(=O)n3C)cc2F)c1=O`, for which the ED85 with Ipomoea purpurea and in the assay on Abutilon theophrasti was 10 g/ha throughout.
`C#CCOc1ccc(CCNC(=O)C(OC)c2ccc(Cl)cc2)cc1OC` (centres undefined): the EC80 is 9.7 µg/mL (≈ 25 µM) in the assay on Phytophthora infestans and 3.5 µg/mL (≈ 9.02 µM) with Plasmopara viticola.
For `C#CCOc1ccc(CCNC(=O)C(OC(=O)CC)c2ccc(Cl)cc2)cc1OC` (centres undefined), in that order: 4.2 µg/mL (≈ 9.77 µM) and 2.8 µg/mL (≈ 6.51 µM).
For the compound `CCCn1c(=O)ccc2cc(F)c(-n3c(=O)cc(C(F)(F)F)n(C)c3=O)cc21`, the results for the ED85 in the assay with Ipomoea purpurea and with Abutilon theophrasti were 30 g/ha and 10 g/ha, respectively.
As for `C#CCOc1ccc(CCNC(=O)C(OCC)c2ccc(Cl)cc2)cc1OC` (centres undefined), the EC80 with Phytophthora infestans turned out to be 4.6 µg/mL (≈ 11.4 µM); with Plasmopara viticola, 2 µg/mL (≈ 4.98 µM).
With `Cn1c(C(F)(F)F)cc(=O)n(-c2cc3[nH]c(=O)ccc3cc2F)c1=O`, the ED85 with Ipomoea purpurea and with Abutilon theophrasti was 30 g/ha in each case.
Consider `C#CCOc1ccc(CCNC(=O)C(OC(C)C)c2ccc(Cl)cc2)cc1OC` (centres undefined), for which the values for the 80% effect concentration (EC80) with Phytophthora infestans and with Plasmopara viticola were 3.1 µg/mL (≈ 7.45 µM) and 10.1 µg/mL (≈ 24.3 µM), respectively.
For `C#CCOc1ccc(CCNC(=O)C(O)c2ccc(Cl)cc2)cc1OC` (centres undefined), in that order: 34.6 µg/mL (≈ 92.6 µM) and 10.4 µg/mL (≈ 27.8 µM).
`CC(C)Cn1c(=O)ccc2cc(F)c(-n3c(=O)cc(C(F)(F)F)n(C)c3=O)cc21`: the ED85 in the assay with Ipomoea purpurea amounted to 30 g/ha; in the assay on Abutilon theophrasti it was 10 g/ha.
As for `C#CCOc1ccc(CCNC(=O)C(OCCC)c2ccc(Cl)cc2)cc1OC` (centres undefined), the EC80 was found to be 5.4 µg/mL (≈ 13 µM) in the assay on Phytophthora infestans and 31 µg/mL (≈ 74.5 µM) in the assay on Plasmopara viticola.
With `C#CCOc1ccc(CCNC(=O)C(OC(=O)OC)c2ccc(Cl)cc2)cc1OC` (centres undefined), the EC80 with Phytophthora infestans is 38.6 µg/mL (≈ 89.4 µM); in the assay with Plasmopara viticola it was 110 µg/mL (≈ 254 µM).
As to `C=CCn1c(=O)ccc2cc(F)c(-n3c(=O)cc(C(F)(F)F)n(C)c3=O)cc21`, the ED85 in the assay on Ipomoea purpurea came to 3 g/ha; in the assay on Abutilon theophrasti it was 1 g/ha.
`C#CCOc1ccc(CCNC(=O)C(OCCF)c2ccc(Cl)cc2)cc1OC` (centres undefined): the 80% effect concentration (EC80) was determined as 4.7 µg/mL (≈ 11.2 µM) in the assay on Phytophthora infestans and 8.9 µg/mL (≈ 21.2 µM) in the assay with Plasmopara viticola.
In the case of `Cn1c(C(F)(F)F)cc(=O)n(-c2cc3c(ccc(=O)n3CC#N)cc2F)c1=O`, the ED85 in the assay with Ipomoea purpurea was determined as 30 g/ha; in the assay with Abutilon theophrasti, 10 g/ha.
`C#CCOc1ccc(CCNC(=O)C(OC(C)(C)C#C)c2ccc(Cl)cc2)cc1OC` (centres undefined): the EC80 with Phytophthora infestans was determined as 4.9 µg/mL (≈ 11.1 µM); in the assay with Plasmopara viticola it was 3.5 µg/mL (≈ 7.96 µM).
For the compound `COC(=O)Cn1c(=O)ccc2cc(F)c(-n3c(=O)cc(C(F)(F)F)n(C)c3=O)cc21`, the ED85 with Ipomoea purpurea is recorded as 100 g/ha; with Abutilon theophrasti, 10 g/ha.
For `CCn1c(=O)ccc2cc(F)c(-n3c(=O)cc(C(F)(F)F)n(C)c3=O)cc21`, in that order: 10 g/ha and 3 g/ha.
For the compound `C#CCOc1ccc(CCNC(=O)C(OC(=O)CC#N)c2ccc(Cl)cc2)cc1OC` (centres undefined), the EC80 with Phytophthora infestans was 3.1 µg/mL (≈ 7.03 µM); in the assay with Plasmopara viticola, 4.9 µg/mL (≈ 11.1 µM).
For `C#CCOc1ccc(CCNC(=O)C(OCC#CC)c2ccc(Cl)cc2)cc1OC` (centres undefined), in that order: 18.3 µg/mL (≈ 43 µM) and 14 µg/mL (≈ 32.9 µM).
On to `C#CCOc1ccc(CCNC(=O)C(OCC=C)c2ccc(Cl)cc2)cc1OC` (centres undefined), for which the EC80 came out at 44.1 µg/mL (≈ 107 µM) in the assay on Phytophthora infestans and 18.6 µg/mL (≈ 44.9 µM) with Plasmopara viticola.
As to `C#CCn1c(=O)ccc2cc(F)c(-n3c(=O)cc(C(F)(F)F)n(C)c3=O)cc21`, the values for the ED85 with Ipomoea purpurea and in the assay on Abutilon theophrasti were 3 g/ha and 1 g/ha, respectively.
Take `C#CCOc1ccc(CCNC(=O)C(OCC#C)c2ccc(Cl)cc2)cc1OC` (centres undefined) [MANDIPROPAMID]: the concentration for an effect of 80% (EC80) in the assay with Phytophthora infestans is 0.1 µg/mL (≈ 0.243 µM); in the assay with Plasmopara viticola it was 1.2 µg/mL (≈ 2.91 µM).
